Experimental data as given in patent US8293769B2, “CSF-1R inhibitors, compositions, and methods of use” (Novartis AG, priority 2008, dated 2012).
Values belong to the compound of their own block, whether it stands above or below them.

Experiments:
[1] = molecular target: T1, cytoplasmic domain of the human CSF-1R (Homo sapiens, UniProt P07333); assay: In vitro kinase assay for CSF-1R (AlphaScreen); assay type: biochemical; conditions: tested at about 1 μM; read-out: CSF1RK 1 percent inhibition
T1 construct: Recombinant protein corresponding to the cytoplasmic domain of the human CSF-1R; purchased Invitrogen Corporation, Carlsbad, Calif; PV3249
T1 sequence (P07333 539-972 limits assumed): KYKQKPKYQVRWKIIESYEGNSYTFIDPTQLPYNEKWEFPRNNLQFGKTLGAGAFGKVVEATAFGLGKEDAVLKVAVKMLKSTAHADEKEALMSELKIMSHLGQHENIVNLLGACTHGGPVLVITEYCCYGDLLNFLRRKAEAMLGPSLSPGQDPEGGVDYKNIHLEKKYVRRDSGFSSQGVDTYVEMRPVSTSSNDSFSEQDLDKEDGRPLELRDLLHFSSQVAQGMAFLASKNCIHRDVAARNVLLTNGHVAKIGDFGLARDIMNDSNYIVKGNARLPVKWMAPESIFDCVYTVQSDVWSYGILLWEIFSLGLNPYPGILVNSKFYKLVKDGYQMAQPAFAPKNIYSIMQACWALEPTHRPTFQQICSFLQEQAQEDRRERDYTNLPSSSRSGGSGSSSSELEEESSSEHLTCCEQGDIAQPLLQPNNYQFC
Procedure: The kinase activity of various protein tyrosine kinases can be measured by providing ATP and a suitable peptide or protein tyrosine-containing substrate, and assaying the transfer of phosphate moiety to the tyrosine residue. Recombinant protein corresponding to the cytoplasmic domain of the human CSF-1R was purchased from Invitrogen Corporation, Carlsbad, Calif. U.S.A. (#PV3249). For each assay, test compounds were serially diluted, starting at 25 μM with 3 fold dilutions, in DMSO in 384 well plates then mixed with an appropriate kinase reaction buffer consisting of 50 mM Hepes, 5 mM MgCl2, 10 mM MnCl2, 0.1% BSA, pH 7.5, 1.0 mM dithiothreitol, 0.01% Tween 80 plus 1 μM ATP. Kinase protein and an appropriate biotinylated peptide substrate at 50 nM were added to give a final volume of 20 μL, reactions were incubated for 2 hours at room temperature and stopped by the addition of 10 μL of 45 mM EDTA, 50 mM Hepes pH 7.5. Added to the stopped reaction mix was 30 μL of PT66 Alphascreen beads (Perkin Elmer, Boston, Mass., U.S.A.). The reaction was incubated overnight and read on the Envision (Perkin Elmer). Phosphorylated peptide product was measured with the AlphaScreen system (Perkin Elmer) using acceptor beads coated with anti-phosphotyrosine antibody PT66 and donor beads coated with streptavidin that emit a fluorescent signal at the 520-620 nm emission wave length if in close proximity. The concentration of each compound for 50% inhibition (IC50) was calculated by non-linear regression using XL Fit data analysis software.
CSF-1R kinase was assayed in 50 mM Hepes pH 7.0, 5 mM MgCl2, 10 mM MnCl2, 1 mM DTT, 1 mg/mL BSA, 1.0 μM ATP, and 0.05 μM biotin-GGGGRPRAATF-NH2 (SEQ ID NO:1) peptide substrate. CSF-1R kinase was added at final concentration of 4 nM.

cKIT = molecular target: T2, cKIT (Homo sapiens, UniProt P10721); assay: cKIT kinase in vitro biochemical assay (alphascreen); conditions: tested at about 1 μM; read-out: CKIT percent inhibition
T2 construct: The kinase domain of cKIT was assayed in 50 mM Hepes; purchased Upstate 14-559
T2 sequence (P10721 589-937 limits assumed): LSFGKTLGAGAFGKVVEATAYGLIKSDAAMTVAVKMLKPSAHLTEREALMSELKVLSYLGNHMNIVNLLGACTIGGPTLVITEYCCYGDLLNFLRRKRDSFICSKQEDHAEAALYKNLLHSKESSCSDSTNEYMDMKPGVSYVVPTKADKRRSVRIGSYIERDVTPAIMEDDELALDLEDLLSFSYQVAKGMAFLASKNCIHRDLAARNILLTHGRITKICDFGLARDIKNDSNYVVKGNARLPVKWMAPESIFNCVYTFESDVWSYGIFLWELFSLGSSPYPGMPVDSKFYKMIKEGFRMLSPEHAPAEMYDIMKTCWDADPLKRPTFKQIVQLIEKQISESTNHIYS
Procedure: (§1) The IC50 values for the inhibition of RTKs were determined in the alphascreen format measuring the inhibition by compound of phosphate transfer to a substrate by the respective enzyme. Briefly, the respective RTK domain purchased as human recombinant protein (cKIT Upstate #14-559, PDGFRb Invitrogen #P3082) were incubated with serial dilutions of compound in the presence of substrate and ATP concentrations within 3 times the Km of the enzyme.
(§2) The kinase domain of cKIT was assayed in 50 mM Hepes, pH=7.5, 5 mM MgCl2, 10 mM MnCl2, 1 mM DTT, 0.1% BSA with 0.06 uM biotinylated peptide substrate (GGLFDDPSYVNVQNL-NH2) and 15 uM ATP (ATP KM apparent=15 uM). The kinase domain of PDGFRβ was assayed in 50 mM Hepes, pH=7.5, 20 mM MgCl2, 1 mM DTT, 0.1% BSA with 0.1 uM biotinylated peptide substrate (GGLFDDPSYVNVQNL-NH2) and 10 uM ATP (ATP KM apparent=25 uM). Reactions were incubated at room temperature for 3 to 4 hr and stopped with buffer (20 mM EDTA, 0.01% Tween-20 for both PDGFRb and cKIT). Alphascreen PY20 beads were added to the stopped cKIT reactions and PY20 Ab/Protein A Alphascreen beads were added to the PDGFRβ stopped reactions. Both reactions were incubated overnight and read on the Alphascreen reader. The concentration of compound for 50% inhibition (IC50) was calculated employing non-linear regression using XL-Fit data analysis software. As a control compound, staurosporine is run in every assay and a Z′>0.5 is required to validate results.

PDGFRb = molecular target: T3, PDGFRb (Homo sapiens, UniProt P09619); assay: PDGFRb kinase in vitro biochemical assay (alphascreen); conditions: tested at about 1 μM; read-out: PDGF RK BETA percent inhibition
T3 construct: The kinase domain of PDGFRβ was assayed in 50 mM Hepes; purchased Invitrogen P3082
T3 sequence (P09619 600-962 limits assumed): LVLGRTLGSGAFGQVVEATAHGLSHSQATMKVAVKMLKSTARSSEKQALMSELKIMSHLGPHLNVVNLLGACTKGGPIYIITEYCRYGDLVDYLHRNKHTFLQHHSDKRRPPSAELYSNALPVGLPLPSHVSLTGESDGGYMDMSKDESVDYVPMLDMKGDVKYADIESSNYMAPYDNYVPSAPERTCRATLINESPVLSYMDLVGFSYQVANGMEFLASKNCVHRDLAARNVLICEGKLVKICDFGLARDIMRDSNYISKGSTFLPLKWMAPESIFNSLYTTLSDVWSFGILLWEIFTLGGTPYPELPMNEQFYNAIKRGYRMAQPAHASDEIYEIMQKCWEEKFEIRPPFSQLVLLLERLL
Procedure: as §1, §2

SMILES: O[C@@H]1CCCC[C@H]1Nc1nc2ccc(Oc3cncc(-c4cnc5[nH]ccc5c4)c3)cc2s1 [Compound 61, (1R,2R)-2-(6-(5-(1H-pyrrolo[2,3-b]pyridin-5-yl)pyridin-3-yloxy)benzo[d]thiazol-2-ylamino) cyclohexanol]
inhibition at 1 µM [1]: 100%
inhibition at 1 µM (cKIT): 84%
inhibition at 1 µM (PDGFRb): 8%

SMILES: CN1CCN(c2ccc(-c3cncc(Oc4ccc5nc(N[C@@H]6CCCC[C@H]6O)sc5c4)c3)cn2)CC1 [Compound 62, (1R,2R)-2-(6-(6′-(4-methylpiperazin-1-yl)-3,3′-bipyridin-5-yloxy)benzo[d]thiazol-2-ylamino) cyclohexanol]
inhibition at 1 µM [1]: 100%
inhibition at 1 µM (cKIT): 77%
inhibition at 1 µM (PDGFRb): 26%

SMILES: O[C@@H]1CCCC[C@H]1Nc1nc2ccc(Oc3cncc(C4CC4)c3)cc2s1 [Compound 65, (1R,2R)-2-(6-(5-cyclopropylpyridin-3-yloxy)benzo[d]thiazol-2-ylamino) cyclohexanol]
inhibition at 1 µM [1]: 100%
inhibition at 1 µM (cKIT): 73%
inhibition at 1 µM (PDGFRb): 8%

SMILES: O[C@@H]1CCCC[C@H]1Nc1nc2ccc(Oc3cncc(-c4ccccn4)c3)cc2s1 [Compound 67]
inhibition at 1 µM [1]: 100%
inhibition at 1 µM (cKIT): 94%
inhibition at 1 µM (PDGFRb): 36%

SMILES: O[C@@H]1CCCC[C@H]1Nc1nc2ccc(Oc3cncc(-c4cscn4)c3)cc2s1 [Compound 69, (1R,2R)-2-(6-(5-(thiazol-4-yl)pyridin-3-yloxy)benzo[d]thiazol-2-ylamino) cyclohexanol]
inhibition at 1 µM [1]: 100%
inhibition at 1 µM (cKIT): 97%
inhibition at 1 µM (PDGFRb): 31%

SMILES: O=[N+]([O-])c1ccc(Oc2ccc3nc(NCC4CCCCC4)sc3c2)cn1 [Compound 71, N-(cyclohexylmethyl)-6-(6-nitropyridin-3-yloxy)benzo [d]thiazol-2-amine]
inhibition at 1 µM [1]: 25%
inhibition at 1 µM (cKIT): 11%
inhibition at 1 µM (PDGFRb): 1%

SMILES: O[C@@H]1CCCC[C@H]1Nc1nc2ccc(Oc3cncc(-c4ccn[nH]4)c3)cc2s1 [Compound 78, (1R,2R)-2-(6-(5-(1H-pyrazol-5-yl)pyridin-3-yloxy)benzo [d]thiazol-2-ylamino)cyclohexanol]
inhibition at 1 µM [1]: 100%
inhibition at 1 µM (cKIT): 88%
inhibition at 1 µM (PDGFRb): 9%

More lines, now with the values ahead:

inhibition at 1 µM [1]: 100%
inhibition at 1 µM (cKIT): 84%
inhibition at 1 µM (PDGFRb): 19%
SMILES: O[C@@H]1CCCC[C@H]1Nc1nc2ccc(Oc3cncc(-c4cn[nH]c4)c3)cc2s1 [Compound 55, (1R,2R)-2-(6-(5-(1H-pyrazol-4-yl)pyridin-3-yloxy)benzo [d]thiazo-2-ylamino)cyclohexanol]

inhibition at 1 µM [1]: 100%
inhibition at 1 µM (cKIT): 86%
inhibition at 1 µM (PDGFRb): 7%
SMILES: CCCn1cc(-c2cncc(Oc3ccc4nc(N[C@@H]5CCCC[C@H]5O)sc4c3)c2)cn1 [Compound 58, (1R,2R)-2-(6-(5-(1-propyl-1H-pyrazol-4-yl)pyridin-3-yloxy)benzo[d]thiazol-2-ylamino)cyclohexanol]

inhibition at 1 µM [1]: 100%
inhibition at 1 µM (cKIT): 78%
inhibition at 1 µM (PDGFRb): 16%
SMILES: O[C@@H]1CCCC[C@H]1Nc1nc2ccc(Oc3cncc(-c4cnn(CCN5CCOCC5)c4)c3)cc2s1 [Compound 59, (1R,2R)-2-(6-(5-(1-(2-morpholinoethyl)-1H-pyrazol-4-yl)pyridin-3-yloxy)benzo[d]thiazol-2-ylamino)cyclohexanol]

inhibition at 1 µM [1]: 100%
inhibition at 1 µM (cKIT): 76%
inhibition at 1 µM (PDGFRb): 10%
SMILES: O[C@@H]1CCCC[C@H]1Nc1nc2ccc(Oc3cncc(-c4ccc(N5CCOCC5)nc4)c3)cc2s1 [Compound 72, (1R,2R)-2-(6-(6′-morpholino-3,3′-bipyridin-5-yloxy)benzo[d]thiazol-2-ylamino)cyclohexanol]

inhibition at 1 µM [1]: 100%
inhibition at 1 µM (cKIT): 83%
inhibition at 1 µM (PDGFRb): 6%
SMILES: O[C@@H]1CCCC[C@H]1Nc1nc2ccc(Oc3cncc(-c4ccnc(N5CCOCC5)c4F)c3)cc2s1 [Compound 77]
